The subject of one data set is RAW264.7 macrophages. In words: Viability / cytotoxicity of RAW264.7 macrophages. Conditions: for viability of RAW264.7 macrophages: 3.0 μg/mL LPS, mean ± S.D., repeated three times. It counts as cell-based. Here is the method:
The method of RAW264.7 macrophage culture and treatments were based on the study of Li et al.. RAW264.7 macrophages (Lot number: BH0799, Chinese Academy of Sciences, Shanghai, China) were grown in DMEM-F medium (1:1) containing 3.15 g/L glucose, 0.365 g/L l-glutamine, 3.57 g/L HEPES, 10% FBS and 1% antibiotics at 37 °C in an atmosphere with 5% CO2 and 90% relative humidity. […] The optimal concentration of LPS for inducing inflammation in the RAW264.7 macrophage was ensured according to cell viability. Furthermore, RAW264.7 macrophages were cultured with different concentrations of GBP (100 μg/mL, 200 μg/mL and 400 μg/mL) to evaluate the cytotoxicity of GBP as described above. The ability of GBP to protect RAW264.7 macrophages was evaluated. In the LPS + GBP group, the macrophages medium supplemented with 200 μg/mL GBP was incubated for 2 h. Then, the macrophages medium was substituted with a macrophages medium supplemented with 1.0 μg/mL LPS and incubated for 24 h. In the LPS group, standard macrophages medium incubated for 2 h. Then, the standard macrophages medium was substituted with macrophages medium supplemented with 1.0 μg/mL LPS and incubated for 24 h. In the CTRL group, standard macrophages medium incubated for 2 h, Then, the standard macrophages medium was replaced with a new one and incubated for 24 h. Finally, the macrophages medium and macrophages were collected for further analysis.

The test system of a further data set is Keap-1, NrF2, HO-1. In words: Western blot of Keap-1, NrF2, HO-1 in RAW264.7 macrophages. Conditions: stimulation with LPS alone. It counts as cell-based. Here is the method:
RAW264.7 macrophages were washed with cold PBS and homogenized with two small magnetic beads (2 mm) and 10× volume of RIPA buffer containing 1% protease inhibitors for 60 s. Then the supernatant was collected after centrifuging at 12,000× g for 10 min at 4 °C, which was the total protein solution. The concentration of protein in the total protein solution was measured by BCA kits. The protein concentration of the supernatant was diluted to 2.0 mg/mL and mixed with an equal volume of buffer (0.25 mol/L Tris-HCl buffer, pH 6.8, containing 4% SDS and 20% glycerol with 20 mmol/L 2-mercaptoethanol). The stacking gel and separating gel were made of 5% (w/v) and 10% (w/v) polyacrylamide, respectively. Electrophoresis was carried out at 80 V until the dye front reached the bottom of the stacking gel, and the gel was run at 120 V until the dye front reached the bottom of the separating gel (165-8001, Bio-Rad Mini-PROTEAN Tetra Electrophoresis System). The PVDF membrane was covered on the gel and transferred membrane at 300 mA for 30 min. The membrane was moved into a decolorization shaker with 5% skim milk (0.5% TBST) and blocked for 1 h at room temperature. […] The film was scanned and archived, processed and decolorized by Photoshop, and the optical density value of the target band was analysed by ImageJ software processing system.

The values below come from PMC9781827, “Isolation and Identification of Anti-Inflammatory Peptide from Goose Blood Hydrolysate to Ameliorate LPS-Mediated Inflammation and Oxidative Stress in RAW264.7 Macrophages” (Molecules, 2022).

In the case of lipopolysaccharide [LPS], the “viability of RAW264.7 macrophages” value was “approximately 51.51 ± 4.29%” with RAW264.7 macrophages (24 h, Figure 1A) and 51.57 ± 7.07% in the data set on RAW264.7 macrophages (LPS group of Figure 1C (CTRL 100 ± 7.35%)). Also, the “LPS concentration resulting in 50% RAW264.7 macrophages death” value in the data set with RAW264.7 macrophages (24 h, estimated from viability at 3.0 μg/mL) is reported as “around 3.0 μg/mL”. Moreover, the “protein expression level of Keap-1” value in the data set on Keap-1, NrF2, HO-1 is listed as “significantly increased”. Moreover, the “protein expression levels of NrF2 and HO-1” value with Keap-1, NrF2, HO-1 was “decreased”.
